Results: patent publication US7687473B2, “5-amino-4-imidazolecarboxamide riboside and its nucleobase as potentiators of antifolate transport and metabolism” (Health Research, Inc., priority 2005, dated 2010)

Tested on: CCRF-CEM cells
Assay: [3H]leucovorin uptake in CCRF-CEM cells
Type: cell-based, human
Conditions: pre-incubation with Z alone, 1 μM [3H]LV
Protocol: Quantitation of folate and antifolate uptake. The method is essentially as follows. Briefly, logarithmically growing (3-5×10^5/ml) CCRF-CEM cells were harvested at room temperature by centrifugation at 1000×g for 5 min. After washing with the appropriate medium, cells were suspended at ≈2×10^7 cells/ml for use in transport studies. […] Anion-free MHS contains 250 mM sucrose and 20 mM HEPES, titrated to pH 7.4 with MgO. […] Uptake was measured as a function of time for 30 min (for rate and extent measurements) or over 5 min (studies requiring initial velocities). […] Uptake was terminated by diluting 100 μL samples into 1 ml of iced 0.9% NaCl. […] The supernatant was aspirated. The cell pellet was washed once with 1 ml iced 0.9% NaCl and centrifuged as above. The washed pellet was solubilized in 1 ml of 0.3% Triton X-100 by incubation for 60 min at 37° C. The solubilized pellet was transferred to a scintillation vial, 10 ml of Liquiscint (National Diagnostics, Atlanta, Ga.) was added and radioactivity was quantitated in a Beckman Model LS6500 liquid scintillation counter. Separate samples at the longest incubation time used in a particular experiment were harvested for HPLC analysis of intracellular contents as above, except that after the second wash the pellets were extracted with 1 ml boiling 0.1 M Na-phosphate, pH 5.5. The extract was clarified by centrifugation and the supernatant was filtered through an MPS-1 filter unit (Amicon) prior to HPLC analysis.

NC(=O)c1ncn([C@@H]2O[C@H](CO)[C@@H](O)[C@H]2O)c1N [Z, 5-amino-4-imidazolecarboxamide riboside]
Potentiation of [3H]LV uptake: does not potentiate
